The text below walks through data of article PMC4878759 (PLoS ONE, 2016).

One assay concerns the target T1, ENaC (Homo sapiens, UniProt P37088+P51168+P51170).
T1 construct: endogenous in cells; host or cells: T84 cells, ENaC induced with 2 mM sodium butyrate for 2 days
T1 sequence (P37088 1-669): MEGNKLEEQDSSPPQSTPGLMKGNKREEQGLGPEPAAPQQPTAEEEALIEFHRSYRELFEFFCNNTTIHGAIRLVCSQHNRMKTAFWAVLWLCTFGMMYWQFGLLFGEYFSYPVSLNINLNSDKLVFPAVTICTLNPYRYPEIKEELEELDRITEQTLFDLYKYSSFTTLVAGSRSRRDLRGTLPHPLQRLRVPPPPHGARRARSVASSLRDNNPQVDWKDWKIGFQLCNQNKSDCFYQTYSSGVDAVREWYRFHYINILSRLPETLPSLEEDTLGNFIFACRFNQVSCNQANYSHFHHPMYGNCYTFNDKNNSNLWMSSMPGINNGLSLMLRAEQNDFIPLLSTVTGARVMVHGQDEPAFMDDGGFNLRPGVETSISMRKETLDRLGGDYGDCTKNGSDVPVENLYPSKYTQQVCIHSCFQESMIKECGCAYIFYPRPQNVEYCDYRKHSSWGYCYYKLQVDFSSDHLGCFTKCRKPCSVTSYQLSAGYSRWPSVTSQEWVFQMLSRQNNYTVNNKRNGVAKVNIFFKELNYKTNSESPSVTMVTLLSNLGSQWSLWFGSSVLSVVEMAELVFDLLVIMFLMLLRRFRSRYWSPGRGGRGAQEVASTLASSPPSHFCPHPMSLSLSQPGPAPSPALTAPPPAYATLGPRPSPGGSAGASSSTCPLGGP
T1 sequence (P51168 1-640): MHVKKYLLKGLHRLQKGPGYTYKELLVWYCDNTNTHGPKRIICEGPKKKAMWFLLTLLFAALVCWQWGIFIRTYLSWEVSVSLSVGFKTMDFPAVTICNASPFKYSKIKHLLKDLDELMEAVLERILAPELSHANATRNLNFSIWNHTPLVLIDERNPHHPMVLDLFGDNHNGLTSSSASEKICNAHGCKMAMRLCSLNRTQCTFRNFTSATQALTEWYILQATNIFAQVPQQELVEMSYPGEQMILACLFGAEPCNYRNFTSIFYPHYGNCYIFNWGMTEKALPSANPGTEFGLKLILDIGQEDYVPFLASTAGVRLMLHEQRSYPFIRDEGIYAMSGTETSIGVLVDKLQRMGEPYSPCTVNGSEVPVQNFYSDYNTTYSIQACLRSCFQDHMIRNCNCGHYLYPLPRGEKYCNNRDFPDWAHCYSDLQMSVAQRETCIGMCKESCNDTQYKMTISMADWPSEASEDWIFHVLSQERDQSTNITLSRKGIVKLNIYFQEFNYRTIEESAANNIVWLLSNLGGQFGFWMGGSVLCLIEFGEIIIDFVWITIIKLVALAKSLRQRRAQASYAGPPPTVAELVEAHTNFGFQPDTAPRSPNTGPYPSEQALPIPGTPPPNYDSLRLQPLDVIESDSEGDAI
T1 sequence (P51170 1-649): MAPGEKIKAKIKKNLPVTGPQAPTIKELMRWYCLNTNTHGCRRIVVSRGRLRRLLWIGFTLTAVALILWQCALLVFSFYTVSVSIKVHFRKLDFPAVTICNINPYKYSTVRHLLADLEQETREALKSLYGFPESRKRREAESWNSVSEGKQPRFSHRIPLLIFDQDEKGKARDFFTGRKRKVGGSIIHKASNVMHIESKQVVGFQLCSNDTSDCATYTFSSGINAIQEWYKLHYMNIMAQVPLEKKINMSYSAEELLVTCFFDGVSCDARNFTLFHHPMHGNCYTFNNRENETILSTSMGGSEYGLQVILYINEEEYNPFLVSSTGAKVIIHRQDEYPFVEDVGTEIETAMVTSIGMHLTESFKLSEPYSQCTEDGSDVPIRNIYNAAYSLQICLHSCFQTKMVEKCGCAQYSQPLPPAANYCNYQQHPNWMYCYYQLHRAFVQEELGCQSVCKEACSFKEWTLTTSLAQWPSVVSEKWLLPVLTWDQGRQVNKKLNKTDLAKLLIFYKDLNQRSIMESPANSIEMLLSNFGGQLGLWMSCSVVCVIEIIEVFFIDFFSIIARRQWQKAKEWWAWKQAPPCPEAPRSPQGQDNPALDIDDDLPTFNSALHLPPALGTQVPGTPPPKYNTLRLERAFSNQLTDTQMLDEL
As to the kind of experiment: Short circuit current in T84 cells expressing ENaC. Type of assay: cell-based. The settings on record: up to 30 μM. The procedure: (§1) Snapwell inserts containing ANO1, ANO2 or CFTR expressing FRT cells, ENaC expressing T-84 cells or the human primary airway epithelial cells were mounted in Ussing chambers (Physiologic Instruments, San Diego, CA). To induce transcriptional ENaC induction, the polarized T84 cells were incubated with 2 mM sodium butyrate for 2 days. To increase the functional expression of ANO1, the human airway epithelial cells were treated with IL-4 (10 ng/mL) for 2 days. For T-84 and the human primary airway epithelial cells, the apical and basolateral bath were filled with HCO3^—buffered solution containing (in mM): 120 NaCl, 5 KCl, 1 MgCl2, 1 CaCl2, 10 D-glucose, 2.5 HEPES, and 25 NaHCO3 (pH 7.4). For FRT cells, the basolateral bath was filled with the HCO3^—buffered solution and the apical bath was filled with a half-Cl^- solution. In the half-Cl^- solution 65 mM NaCl in the HCO3^—buffered solution was replaced by Na-gluconate. […] ATP was applied to the apical bath solution to induce intracellular calcium increase. […] Apical membrane currents were measured with an EVC4000 Multi-Channel V/I Clamp (World Precision Instruments, Sarasota, FL) and PowerLab 4/35 (AD Instruments, Castle Hill, Australia). Data were analyzed using Labchart Pro 7 (AD Instruments). The sampling rate was 4 Hz.
(§2) ANO1 was activated by either 10 μM Eact, an ANO1 activator, or 100 μM ATP.

Another assay addresses T2, human wild-type CFTR (Homo sapiens, UniProt P13569).
T2 construct: expressed in transfected cells; host or cells: Fischer rat thyroid (FRT) cells
As to the kind of experiment: Apical membrane current in FRT cells expressing CFTR. The settings on record: up to 30 μM, CFTR activated by 20 μM forskolin. Format: cell-based. The procedure: as §1, §2

T2 sequence (P13569 whole entry): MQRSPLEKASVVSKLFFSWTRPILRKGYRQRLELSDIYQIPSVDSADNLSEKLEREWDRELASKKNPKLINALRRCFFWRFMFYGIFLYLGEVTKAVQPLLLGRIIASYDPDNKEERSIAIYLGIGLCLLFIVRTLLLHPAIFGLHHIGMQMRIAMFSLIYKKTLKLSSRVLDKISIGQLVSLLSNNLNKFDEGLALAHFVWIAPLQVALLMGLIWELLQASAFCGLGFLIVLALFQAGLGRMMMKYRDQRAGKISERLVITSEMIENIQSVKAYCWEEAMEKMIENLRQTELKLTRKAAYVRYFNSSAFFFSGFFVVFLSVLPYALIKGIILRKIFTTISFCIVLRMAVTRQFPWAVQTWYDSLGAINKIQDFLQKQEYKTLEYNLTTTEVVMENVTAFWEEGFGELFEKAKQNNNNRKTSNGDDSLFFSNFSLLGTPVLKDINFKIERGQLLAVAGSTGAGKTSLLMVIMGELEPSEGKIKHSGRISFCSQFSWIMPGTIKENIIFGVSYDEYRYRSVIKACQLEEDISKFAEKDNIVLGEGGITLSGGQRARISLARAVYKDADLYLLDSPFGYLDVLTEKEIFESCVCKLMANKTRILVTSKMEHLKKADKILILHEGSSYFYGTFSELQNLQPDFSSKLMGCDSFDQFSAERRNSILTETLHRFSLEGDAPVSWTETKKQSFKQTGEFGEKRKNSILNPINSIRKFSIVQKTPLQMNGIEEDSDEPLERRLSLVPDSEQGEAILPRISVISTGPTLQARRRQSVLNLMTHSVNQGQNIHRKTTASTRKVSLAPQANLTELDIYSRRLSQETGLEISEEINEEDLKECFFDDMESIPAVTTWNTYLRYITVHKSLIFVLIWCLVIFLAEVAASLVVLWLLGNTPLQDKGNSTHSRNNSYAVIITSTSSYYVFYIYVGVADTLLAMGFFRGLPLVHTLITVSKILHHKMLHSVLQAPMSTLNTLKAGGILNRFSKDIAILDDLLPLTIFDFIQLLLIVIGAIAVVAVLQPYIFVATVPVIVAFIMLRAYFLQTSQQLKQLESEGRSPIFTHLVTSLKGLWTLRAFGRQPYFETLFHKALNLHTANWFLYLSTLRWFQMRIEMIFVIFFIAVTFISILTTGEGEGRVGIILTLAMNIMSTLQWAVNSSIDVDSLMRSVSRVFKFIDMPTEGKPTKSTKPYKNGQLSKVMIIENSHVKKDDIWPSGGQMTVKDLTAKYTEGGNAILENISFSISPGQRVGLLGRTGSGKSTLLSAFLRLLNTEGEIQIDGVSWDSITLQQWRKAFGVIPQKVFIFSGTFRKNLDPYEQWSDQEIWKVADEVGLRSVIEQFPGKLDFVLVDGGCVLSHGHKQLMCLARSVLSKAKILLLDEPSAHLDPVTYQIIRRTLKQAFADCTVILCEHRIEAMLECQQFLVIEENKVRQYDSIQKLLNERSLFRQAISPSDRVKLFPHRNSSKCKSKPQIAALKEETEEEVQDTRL

For the compound `COc1ccccc1C=NNC(=O)COc1ccc(Cl)cc1C` [Ani9, 2-(4-chloro-2-methylphenoxy)-N-[(2-methoxyphenyl)methylideneamino]-acetamide], at ENaC, the “effect on ENaC channel activity” value was “no effect”. The “effect on CFTR channel activity” value at human wild-type CFTR is reported as “no effect”.
